Results on 4 molecules are retold here after patent publication US20250163050A1, “CRYSTALLINE (+)-TETRABENAZINE” (Foresee Pharmaceuticals Co., Ltd., priority 2022, published 2025).

Converted amounts (≈) assume the structure as drawn. Where two headings read alike, the source gives them in different places.

Broadly, the solubility is how much of the substance goes into solution per volume. By half-life is commonly meant the time needed for the level to fall by half in the phase considered.

Data set [1] in a line: Powder flow property, angle of repose (USP 1174). The format is physicochemical. From the text:
The present application enables the production of crystalline (+)-TBZ in various particle size ranges and crystal morphology (e.g. rod-shaped crystals and more symmetric crystals). As API powder/crystalline flowability can be critical in the manufacture of a drug product, flow property of crystalline (+)-TBZ in the present application was investigated.

Data set [2] can be described thus: Solubility in PBS with 0.2% (w/v) tween 20 at 37° C. The format is physicochemical. The settings on record: for solubility: PBS with 0.2% (w/v) tween 20, 37° C., overnight. How it is done:
20 mg Form 2 crystalline (+)-TBZ was dispersed into 1 ml PBS with 0.2% (w/v) tween 20. Then, this excessively saturated suspension was stirred overnight at 37° C. 0.8 ml of former suspension was transferred into 1.5 mL Eppendorf centrifuge tube. The undissolved solid was spun down using bench-top centrifuge at the rotation of 14000 rpm for 5 min.
• Flow rate: 0.3 mL/min • Column temp: 55° C. • Injection volume: 2 uL • Detection: 220 nm • Run time: 10 min • (+)-TBZ retention time: ˜3.5 min

A short description of data set [3]: Metabolism in rat liver microsome (RLM). In kind it is in vitro ADME. How it is done: Rat liver microsome (RLM) study was conducted to investigate the generation of pharmaceutically active metabolites of Form 2 (+)-TBZ and TBZ racemate.
For orientation: Liver microsomes are vesicles of endoplasmic reticulum, rich in cytochrome P450 enzymes.

The next data set deals with dopamine receptors. The settings on record: cited from earlier work.
For data set [4] the following is noted: compared with TBZ; cited from earlier work.
The conditions of data set [5]: patients, dose escalation; cited from earlier work.
For data set [6] the following is noted: in vivo; cited from earlier work.

As for `COc1cc2c(cc1OC)[C@H]1CC(=O)[C@H](CC(C)C)CN1CC2` [Form 2 crystalline (+)-TBZ, (3R,11bR)-tetrabenazine], the “Response Angle” value in data set [1] (D50 15 μm) is 45.3 ± 5.0 °; in data set [1] (D50 35 μm) it was 43.3 ± 2.5 °; in data set [1] (D50 50 μm), 36.7 ± 7.6 °; in data set [1] (D50 80 μm, more symmetric crystals), 34.7 ± 1.2 °; in data set [1] (D50 80 μm, more symmetric crystals, listed as more symmetric crystalline (+)-TBZ), “about 35 °”; in data set [1] (D50 125 μm) it was 35.3 ± 2.3 °. The “Response Angle” value in data set [1] (Rod shape (80 μm)) is 64.3 ± 1.2 °; in data set [1] (Rod shape (80 μm), listed as rod-shaped crystalline (+)-TBZ), “about 64 °”. Further, the solubility in data set [2] came out at 61.032 µg/mL (≈ 192 µM). Besides, the “(+)-DHTBZ concentration in RLM” value in data set [3] (0 min) is on record as 0 ng/mL; in data set [3] (15 min), 455 ng/mL; in data set [3] (30 min), 608 ng/mL; in data set [3] (45 min) it was 616 ng/mL; in data set [3] (60 min), 627 ng/mL. Besides, the “(+)-TBZ concentration in RLM” value in data set [3] (0 min) was 2056 ng/mL; in data set [3] (15 min) it was 881 ng/mL; in data set [3] (30 min), 366 ng/mL; in data set [3] (45 min), 122 ng/mL; in data set [3] (60 min), 42 ng/mL. Besides, the “(−)-DHTBZ concentration in RLM” value in data set [3] (0 min), in data set [3] (15 min), in data set [3] (30 min), in data set [3] (45 min) and in data set [3] (60 min) was 0 ng/mL each time. Moreover, the “(−)-TBZ concentration in RLM” value in data set [3] (0 min), in data set [3] (15 min), in data set [3] (30 min), in data set [3] (45 min) and in data set [3] (60 min) was 0 ng/mL throughout. For the same molecule, in data set [3] (rat liver microsome), the “amounts of therapeutically active VMAT2 inhibitors, (+)-TBZ and (+)-DHTBZ, generated in RLM versus racemate TBZ” value was “comparable amounts”. The molecule also came in with a half-life in data set [3] (rat liver microsome) of 10.6 min.
For `COc1cc2c(cc1OC)[C@H]1C[C@H](O)[C@H](CC(C)C)CN1CC2` [(2S,3R,11bR)-DHTBZ], the “binding at dopamine receptors” value in the data set with dopamine receptors is “negligible binding”. Besides, the sedative effects result in data set [4] is listed as “lack the unwanted sedative effects”.
As to `COc1cc2c(cc1OC)C1CC(=O)C(CC(C)C)CN1CC2` (racemic) [TBZ racemate, 1,3,4,6,7,11b-hexahydro-9,10-dimethoxy-3-(2-methylpropyl)-2H-benzo[a]quinolizin-2-one], the “less solubility compared to Form 2 crystalline (+)-TBZ” value in data set [2] (PBS with 0.2% w/v Tween 20) is listed as “about 40%”. Moreover, in data set [2] (aqueous with cosolvent or surfactant or cyclodextrin, thermodynamic from solid, read-out: Solubility), the solubility was found to be 36.4 µg/mL (≈ 115 µM). Besides, the half-life in data set [3] (liver microsomes, rat liver microsome, read-out: Half-life) was determined as 10.6 min. Also, in data set [5], the “side-effect: akathisia” value is on record as 9.5%, the “side-effect: depression” value is recorded as 15.0%, the “side-effect: drowsiness” value is recorded as 36.5% and the “side-effect: insomnia” value is 11.0%. In addition, in data set [5], the “side-effect: nervousness or anxiety” value is given as 10.3% and the “side-effect: parkinsonism” value is given as 28.5%. In data set [6], the bioavailability entry was “low and variable”.
Consider `COc1cc2c(cc1OC)[C@H]1C[C@@H](O)[C@H](CC(C)C)CN1CC2` [(2R,3R,11bR)-DHTBZ], for which the “binding at dopamine receptors” value with dopamine receptors was “negligible binding”. Further, the sedative effects result in data set [4] was “lack the unwanted sedative effects”.
